The source of these data is patent US10570149B2, “Tricyclic heterocylic derivatives” (MERCK PATENT GMBH, priority 2016, dated 2020).

In one assay the target is T1, ATR/ATRIP (Homo sapiens, UniProt Q13535).
T1 construct: human ATR, full length, GenBank ID: NM_001184.3; p53: Sf21 insect cells
Nature of the assay: ATR/ATRIP kinase assay (TR-FRET, p53 phosphorylation). The assay is classed as biochemical. The conditions noted are these: Table 1, class symbols; read-out: ATR-ATRIP IC50.

In assay [1] the test system is phosphorylation of Chk1 (Ser 345) in HT29 colon adenocarcinoma cells. The assay is described as follows: pCHK1 cellular assay. Type of assay: cell-based. The conditions noted are these: Homo sapiens, HT-29, Table 1, class symbols, hydroxyurea. From the text:
Chk1 kinase acts downstream of ATR and has a key role in DNA damage checkpoint control. Activation of Chk1 involves phosphorylation of Ser317 and Ser345 (regarded as the preferential target for phosphorylation/activation by ATR) and occurs in response to blocked DNA replication and certain forms of genotoxic stress. Phosphorylation at Ser 345 serves to localize Chk1 to the nucleus following checkpoint activation.
This assay measures a decrease in phosphorylation of Chk1 (Ser 345) in HT29 colon adenocarcinoma cells following treatment with compound and hydroxyurea (which promotes fork stalling because of dNTP depletion) and using an immunocytochemical procedure and high content imaging.
For the assay HT29 cells are plated in culture medium (DMEM high Glucose (no phenol red), 2 mM Glutamax, 1 mM Pyruvate, 10% FCS into Greiner 384 well plates, black, μclear #781090 (2500 cells/well/30 μl) and incubated for at least 20 hours at 37° C., 10% CO2 and 90% rH. Diluted test compounds (1 nM-30 μM final) and hydroxyurea (3 mM final) are added simultaneously and cells are incubated for 4 h at 37° C. After fixation/prmeabilisation with 100% MeOH (−20° C. cold) and permeabilisation with 0.2% Triton X-100 a complete immunocytochemical procedure is performed using a specific anti-pChk1 antibody (Cell Signaling, #2348BF) and fluorescently labelled secondary antibody (Alexa Fluor® 488 goat anti-rabbit F(ab′)2 fragment, Invitrogen A11070) and parallel nuclear staining for cell counting.
The nuclear localised pChk1 signal is detected on an ImageXpress Ultra confocal high content reader and reported as % positive cells (nuclei).

Assay [2] concerns phosphorylation of H2AX (gH2AX) in U2OS-TopBP1-ER cells. The assay is described as follows: gH2AX-TopBP1ER cellular assay. Type of assay: cell-based. The conditions noted are these: Table 1, class symbols, 4-OHT. From the text:
gH2AX-TopBP1ER Cellular Assay
ATR activity is restricted to replicating cells and many of its targets can also be phosphorylated by other PIKKs. These restrictions have limited the development of selective cellular assays in the past. In order to overcome these limitations, a previously developed genetically engineered cellular system in which ATR, and only ATR, can be activated at will in every cell (Toledo et al Genes Dev. 22, 297-302 2008) was used. In this system, the addition of 4-hydroxytamoxifen (4-OHT), promotes the nuclear translocation of a fragment of TopBP1 which then activates ATR. The phosphorylation of H2AX that follows 4-OHT addition in these cells is a direct and selective readout of ATR activity, which is not influenced by the rest of PIKKs. This property has been used in a screen for compounds with ATR inhibitory capacity. U2OS-TopBP1-ER cells stably express the TopBP1 activation domain (aa 978-1286) fused to a mutated estrogen receptor ligand binding domain. Nuclear accumulation of the TopBP1-ER-LBD fusion protein is induced by the synthetic ER antagonist 4-hydroxytamoxifen (4-OHT) (and not by natural ER agonists) mediating specific ATR activation that is independent of DNA damage or cell cycle. In the assay phosphorylation of the ATR substrate H2AX (“gH2AX”) at Serin 139 is detected using an immune-cytochemical procedure and high content imaging. For the assay U2OS-TopBP1-ER cells are plated in culture medium (DMEM high Glucose (no phenol red), 2 mM Glutamax, 1 mM Pyruvate, 10% FCS into Greiner 384 well plates, black, μclear #781090 (4000 cells/well/30 μl) and incubated for at least 20 hours at 37° C., 10% CO2 and 90% rH. Diluted test compounds (1 nM-30 μM final) and 4-OHT (1 μM final) are added simultaneously and cells are incubated for 2 h at 37° C. After fixation with 4% formaldehyde and permeabilisation with 0.2% Triton X-100 a complete immunocytochemical procedure is performed using a specific anti-gH2AX-antibody (Millipore 05-636, clone JBW301) and fluorescently labelled secondary antibody (Alexa Fluor® 488 goat anti-mouse F(ab′)2 fragment, Invitrogen A11017) and parallel nuclear staining for cell counting. The nuclear localised gH2AX signal is detected on an ImageXpress Ultra confocal high content reader and reported as % positive cells (nuclei).

T1 sequence (Q13535 whole entry): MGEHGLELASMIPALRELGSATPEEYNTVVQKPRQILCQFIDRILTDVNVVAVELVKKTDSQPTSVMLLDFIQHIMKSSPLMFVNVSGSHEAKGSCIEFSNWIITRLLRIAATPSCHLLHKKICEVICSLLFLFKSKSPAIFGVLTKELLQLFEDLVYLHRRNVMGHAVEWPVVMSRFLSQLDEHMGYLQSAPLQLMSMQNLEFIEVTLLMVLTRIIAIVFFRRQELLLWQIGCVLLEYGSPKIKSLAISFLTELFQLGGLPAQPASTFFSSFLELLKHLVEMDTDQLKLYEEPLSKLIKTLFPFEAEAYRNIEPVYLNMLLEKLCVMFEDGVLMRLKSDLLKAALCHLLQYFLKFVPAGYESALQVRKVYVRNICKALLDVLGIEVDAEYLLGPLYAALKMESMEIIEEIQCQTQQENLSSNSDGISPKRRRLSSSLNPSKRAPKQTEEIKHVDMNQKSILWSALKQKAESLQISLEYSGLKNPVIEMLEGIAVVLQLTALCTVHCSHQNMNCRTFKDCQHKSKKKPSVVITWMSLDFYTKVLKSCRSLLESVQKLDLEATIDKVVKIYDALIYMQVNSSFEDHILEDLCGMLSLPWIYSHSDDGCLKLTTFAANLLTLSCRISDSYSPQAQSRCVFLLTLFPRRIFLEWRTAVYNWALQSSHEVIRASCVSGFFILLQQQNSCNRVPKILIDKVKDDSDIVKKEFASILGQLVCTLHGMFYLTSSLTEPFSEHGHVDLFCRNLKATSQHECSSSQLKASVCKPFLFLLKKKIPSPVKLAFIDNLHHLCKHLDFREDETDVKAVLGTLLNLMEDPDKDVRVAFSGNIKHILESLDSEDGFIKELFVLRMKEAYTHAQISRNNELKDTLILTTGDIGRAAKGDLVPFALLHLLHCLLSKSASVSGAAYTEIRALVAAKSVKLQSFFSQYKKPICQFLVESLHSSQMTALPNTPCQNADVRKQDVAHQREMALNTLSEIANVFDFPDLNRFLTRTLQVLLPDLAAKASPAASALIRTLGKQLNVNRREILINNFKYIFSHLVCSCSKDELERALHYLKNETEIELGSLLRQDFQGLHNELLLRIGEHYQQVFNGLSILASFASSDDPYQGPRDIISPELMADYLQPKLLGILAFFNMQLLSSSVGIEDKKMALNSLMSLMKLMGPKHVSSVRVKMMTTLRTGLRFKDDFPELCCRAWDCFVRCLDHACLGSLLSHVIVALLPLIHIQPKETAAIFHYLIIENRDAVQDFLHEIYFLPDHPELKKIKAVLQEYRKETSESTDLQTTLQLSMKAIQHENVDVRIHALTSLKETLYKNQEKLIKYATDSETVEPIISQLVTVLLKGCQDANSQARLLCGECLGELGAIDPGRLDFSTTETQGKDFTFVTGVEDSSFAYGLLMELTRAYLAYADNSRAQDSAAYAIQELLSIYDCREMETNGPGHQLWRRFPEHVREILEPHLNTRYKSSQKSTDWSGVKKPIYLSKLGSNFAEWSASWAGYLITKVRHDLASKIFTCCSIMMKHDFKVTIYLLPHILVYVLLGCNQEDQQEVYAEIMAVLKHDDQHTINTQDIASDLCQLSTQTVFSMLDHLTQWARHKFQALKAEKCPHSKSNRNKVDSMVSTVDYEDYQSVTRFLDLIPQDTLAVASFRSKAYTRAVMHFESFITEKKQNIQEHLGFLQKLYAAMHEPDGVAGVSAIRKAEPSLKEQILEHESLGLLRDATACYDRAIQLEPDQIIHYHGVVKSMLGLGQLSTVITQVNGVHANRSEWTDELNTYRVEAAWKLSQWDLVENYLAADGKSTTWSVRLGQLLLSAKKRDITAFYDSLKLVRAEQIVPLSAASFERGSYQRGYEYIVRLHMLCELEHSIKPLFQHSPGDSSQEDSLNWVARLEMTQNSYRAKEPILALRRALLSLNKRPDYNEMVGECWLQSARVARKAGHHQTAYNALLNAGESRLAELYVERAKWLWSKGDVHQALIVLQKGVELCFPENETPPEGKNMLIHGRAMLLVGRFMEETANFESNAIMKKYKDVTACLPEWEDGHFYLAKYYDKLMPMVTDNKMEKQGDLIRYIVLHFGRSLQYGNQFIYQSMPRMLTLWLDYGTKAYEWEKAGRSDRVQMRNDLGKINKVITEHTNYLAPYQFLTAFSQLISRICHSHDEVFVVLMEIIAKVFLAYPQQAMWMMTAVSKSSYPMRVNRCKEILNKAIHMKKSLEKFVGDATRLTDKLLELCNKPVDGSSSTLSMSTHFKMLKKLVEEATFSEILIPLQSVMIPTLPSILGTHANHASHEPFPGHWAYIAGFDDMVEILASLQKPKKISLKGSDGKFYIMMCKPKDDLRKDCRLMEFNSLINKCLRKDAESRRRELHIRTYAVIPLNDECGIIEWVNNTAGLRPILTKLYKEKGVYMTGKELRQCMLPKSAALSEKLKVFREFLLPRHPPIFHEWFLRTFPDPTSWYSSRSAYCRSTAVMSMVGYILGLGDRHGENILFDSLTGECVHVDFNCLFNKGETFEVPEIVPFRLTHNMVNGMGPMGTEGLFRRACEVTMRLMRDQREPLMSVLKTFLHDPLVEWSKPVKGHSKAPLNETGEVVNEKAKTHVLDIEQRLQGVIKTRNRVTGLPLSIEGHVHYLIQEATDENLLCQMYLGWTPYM
T1 sequence (Q8WXE1 whole entry partner): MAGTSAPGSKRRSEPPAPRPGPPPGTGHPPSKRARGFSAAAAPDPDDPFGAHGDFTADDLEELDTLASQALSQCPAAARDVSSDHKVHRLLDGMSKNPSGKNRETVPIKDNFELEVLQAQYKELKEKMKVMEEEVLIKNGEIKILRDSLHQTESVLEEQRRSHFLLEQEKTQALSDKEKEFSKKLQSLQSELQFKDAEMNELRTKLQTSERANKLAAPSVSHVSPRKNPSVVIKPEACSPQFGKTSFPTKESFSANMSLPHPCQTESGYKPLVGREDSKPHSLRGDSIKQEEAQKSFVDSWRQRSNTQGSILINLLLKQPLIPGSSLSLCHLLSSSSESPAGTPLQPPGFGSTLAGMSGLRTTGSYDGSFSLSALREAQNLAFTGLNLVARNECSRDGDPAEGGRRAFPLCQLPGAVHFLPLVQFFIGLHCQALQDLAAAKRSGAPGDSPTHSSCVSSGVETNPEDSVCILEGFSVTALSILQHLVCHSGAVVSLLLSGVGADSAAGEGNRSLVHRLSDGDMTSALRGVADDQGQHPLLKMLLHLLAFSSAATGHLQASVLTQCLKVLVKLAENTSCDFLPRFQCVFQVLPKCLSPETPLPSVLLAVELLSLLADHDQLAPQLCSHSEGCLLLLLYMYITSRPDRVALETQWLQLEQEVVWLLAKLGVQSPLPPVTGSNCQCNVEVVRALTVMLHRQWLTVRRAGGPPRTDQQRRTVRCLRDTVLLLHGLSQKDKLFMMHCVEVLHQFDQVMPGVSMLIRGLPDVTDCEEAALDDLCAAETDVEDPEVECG

Regarding `CNc1nc2ccccc2n1-c1nc2c(c(C(C)(C)O)n1)OC[C@@H]1COC[C@@H](C)N21` [A9, 2-[(5R,8aS)-5-Methyl-3-(2-methylamino-benzimidazol-1-yl)-5,6,8a,9-tetrahydro-8H-7,10-dioxa-2,4,4b-triaza-phenanthren-1-yl]-propan-2-ol], the values for the half-maximal inhibitory concentration (IC50) (on ATR/ATRIP; in assay [1]; in assay [2]) were under 1 nM, 10 to 100 nM and 100 to 1000 nM, respectively.
Consider `C[C@@H]1COC[C@H]2COc3c(nc(-c4ccnc5[nH]ccc45)nc3C(C)(C)O)N21` [A6, 2-[(5R,8aS)-5-Methyl-3-(1H-pyrrolo[2,3-b]pyridin-4-yl)-5,6,8a,9-tetrahydro-8H-7,10-dioxa-2,4,4b-triaza-phenanthren-1-yl]-propan-2-ol], for which the figures for the IC50 (on ATR/ATRIP; in assay [1]; in assay [2]) were under 1 nM, 10 to 100 nM and 10 to 100 nM, respectively.
